# Experimental data reported in EP4603105A1, “PHARMACEUTICAL COMPOSITION CONTAINING CYCLIC COMPOUND HAVING SELECTIVE KRAS INHIBITORY EFFECT AGAINST HRAS AND NRAS” (CHUGAI SEIYAKU KABUSHIKI KAISHA, priority 2022, dated 2024).
# Like-named read-outs stand apart in the source and are kept apart here. Where a SMILES comes first, the peptide text is derived from it. Bridges are numbered along the chain shown (N, C = ends). [ ]: non-standard residue; d: D form. The star is where a group is joined. hPhe(3-Cl-4-CF3) = N[C@@H](CCc1ccc(C(F)(F)F)c(Cl)c1)C(=O)O; NPrPhe(4-CF3) = CCCN[C@@H](Cc1ccc(C(F)(F)F)cc1)C(=O)O; NMeGly(cPent) = CN[C@H](C(=O)O)C1CCCC1; Pro(4,4-F2) = O=C(O)[C@@H]1CC(F)(F)CN1; Hyp = O=C(O)[C@@H]1C[C@@H](O)CN1; NMeD = CN[C@@H](CC(=O)O)C(=O)O; NMeL = CN[C@@H](CC(C)C)C(=O)O; Morpholide = C1CN(*)CCO1; NMeA = CN[C@@H](C)C(=O)O; Ac5c = NC1(C(=O)O)CCCC1; Aze = O=C(O)[C@@H]1CCN1; Ac4c = NC1(C(=O)O)CCC1; NEtG = CCNCC(=O)O; Sar = CNCC(=O)O
# What was measured:
# [1] = biological target: GDP-bound NRAS wild-type protein (Homo sapiens, UniProt P01111); assay: Binding to NRAS by surface plasmon resonance (SPR), KD and KD ratio to KRAS
# GDP-bound NRAS wild-type protein, sequence (P01111 whole entry): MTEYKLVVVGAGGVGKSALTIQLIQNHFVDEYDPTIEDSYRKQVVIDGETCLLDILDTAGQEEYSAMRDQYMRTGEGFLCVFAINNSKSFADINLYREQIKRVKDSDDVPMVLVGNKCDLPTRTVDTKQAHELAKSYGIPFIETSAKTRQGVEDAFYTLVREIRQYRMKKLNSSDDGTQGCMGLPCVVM
# Procedure, shortened: (§1)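 SPR, 30°C: Avi-biotin RAS·GDP captured via Biotin CAPture (~100–300 RU); running buffer HBS pH 7.4, 1 mM DTT, 10 mM MgCl2, 0.01% Tween 20, 10 µM GDP, 4% DMSO. Single-cycle kinetics, 100 µL/min, 75 s injections; 1:1 model → KD.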
# [2] = biological target: HRAS wild-type protein (Homo sapiens, UniProt P01112); assay: Binding to HRAS by surface plasmon resonance (SPR), KD and KD ratio to KRAS
# HRAS wild-type protein, sequence (P01112 whole entry): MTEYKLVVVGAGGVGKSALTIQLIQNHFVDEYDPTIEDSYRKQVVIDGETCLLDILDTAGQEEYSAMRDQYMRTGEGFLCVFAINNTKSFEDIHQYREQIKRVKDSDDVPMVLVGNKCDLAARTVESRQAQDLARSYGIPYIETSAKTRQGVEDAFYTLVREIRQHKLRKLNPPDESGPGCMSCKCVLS
# Procedure, shortened: as §1
# [3] = test system: human lung cancer strain NCI-H441; assay type: cell-based
# Procedure, shortened: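 Proliferation was scored by […] measured after the reagent was added to cultures kept at 37°C in 5% carbon dioxide.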
# [4] = ratio of KD for GDP-bound NRAS wild-type protein to KD for KRAS
# [5] = ratio of KD for HRAS wild-type protein to KD for KRAS
# [6] = NCI-H441 cells, 4 days, CellTiter-Glo, read-out: NCl-H441 IC50
# [7] = ratio of the KD value with respect to GDP-bound NRAS wild-type protein to the KD value with respect to KRAS
# [8] = ratio of the KD value with respect to HRAS wild-type protein to the KD value with respect to KRAS
# [9] = ratio of KD value for GDP-bound NRAS wild-type protein to KD value for KRAS (SPR)
# [10] = ratio of KD value for HRAS wild-type protein to KD value for KRAS (SPR)
IC50 [3],SMILES,"NRAS /KRAS [1, 4]","HRAS /KRAS [2, 5]","IC50 [3, 6]","NRAS /KRAS [1, 7]","HRAS /KRAS [2, 8]","NRAS /KRAS [1, 9]","HRAS /KRAS [2, 10]"
12.1 nM,"CCCN1C(=O)[C@@H]2CCN2C(=O)[C@H](C)N(C)C(=O)[C@H]([C@@H](C)CC)NC(=O)[C@H](CC(C)C)N(C)C(=O)C[C@@H](C(=O)N(C)C)NC(=O)[C@H](C2CCCC2)N(C)C(=O)C2(CCC2)NC(=O)[C@@H]2CC(F)(F)CN2C(=O)[C@H](CCc2ccc(C(F)(F)F)c(Cl)c2)NC(=O)CN(C)C(=O)[C@@H]1Cc1ccc(C(F)(F)F)cc1 [PP0382] ([NMeL]I[NMeA][Aze][NPrPhe(4-CF3)][Sar][hPhe(3-Cl-4-CF3)][Pro(4,4-F2)][Ac4c][NMeGly(cPent)]D-NMe2; lactam N-11)",C (A compound having a KD ratio of 0.1 or more and less than 3 is denoted as C),B (a compound having 3 or more and less than 10 is denoted as B),,,,,
,CCC[C@H]1C(=O)N[C@@H]([C@@H](C)CC)C(=O)N(C)CC(=O)N(C)[C@H]2C/C=C\CCN(C2=O)[C@@H](Cc2ccc(C(F)(F)F)cc2)C(=O)N(C)CC(=O)N[C@@H](CCc2cc(Cl)c(C(F)F)c(Cl)c2)C(=O)N2C[C@H](OCC)C[C@H]2C(=O)NC2(CC(C)(C)C2)C(=O)N(C)[C@@H](C2CCCC2)C(=O)N(C)[C@H](C(=O)N(C)C)CC(=O)N1C [PP2865],A (a compound having 10 or more and less than 20 is denoted as A),A (a compound having 10 or more and less than 20 is denoted as A),37.7 nM,,,,
12.4 nM,CCO[C@@H]1C[C@H]2C(=O)NC3(CCC3)C(=O)N(C)[C@@H](C3CCCC3)C(=O)N(C)[C@H](C(=O)N(C)C)CC(=O)N(C)[C@@H](CC(F)(F)F)C(=O)N[C@@H]([C@@H](C)CC)C(=O)N(C)CC(=O)N(C)[C@H]3C/C=C\CCN(C3=O)[C@@H](Cc3ccc(C(F)(F)F)cc3)C(=O)N(C)CC(=O)N[C@@H](CCc3cc(F)c(C(F)(F)F)c(F)c3)C(=O)N2C1 [PP1124],A (a compound having 10 or more and less than 20 is denoted as A),B (a compound having 3 or more and less than 10 is denoted as B),,,,,
18.4 nM,CC[C@H](C)[C@@H]1NC(=O)[C@H](CC(C)C)N(C)C(=O)C[C@@H](C(=O)N2CCOCC2)N(C)C(=O)[C@H](C2CCC2)N(C)C(=O)C2(CCCC2)NC(=O)[C@@H]2CCCN2C(=O)[C@H](CCc2cc(F)c(C(F)(F)F)c(F)c2)NC(=O)CN(C)C(=O)[C@H](Cc2ccc(C(F)(F)F)cc2)N2CCCC[C@@H](C2=O)N(C)C(=O)CN(C)C1=O [PP0566],,,,B (a compound having 3 or more and less than 10 is denoted as B),B (a compound having 3 or more and less than 10 is denoted as B),,
63.4 nM,CC[C@H](C)[C@@H]1NC(=O)[C@H](COC)N(C)C(=O)C[C@@H](C(=O)N2CCOCC2)N(C)C(=O)[C@H](C2CCCC2)N(C)C(=O)C2(CCC2)NC(=O)[C@@H]2C[C@@H](OC)CN2C(=O)[C@H](CCc2cc(F)c(C(F)(F)F)c(F)c2)NC(=O)CN(C)C(=O)[C@H](Cc2ccc(C(F)(F)F)cc2)N2CCCCC[C@@H](C2=O)N(C)C(=O)CN(C)C1=O [PP0837],B (a compound having 3 or more and less than 10 is denoted as B),B (a compound having 3 or more and less than 10 is denoted as B),,,,,
1.5 nM,CC[C@H](C)[C@@H]1NC(=O)[C@H](CC(F)(F)F)N(C)C(=O)C[C@@H](C(=O)N(C)C)N(C)C(=O)[C@H](C2CCCC2)N(C)C(=O)C2(CC(C)(C)C2)NC(=O)[C@@H]2C[C@@H](F)CN2C(=O)[C@H](CCc2cc(F)c(C(F)(F)F)c(F)c2)NC(=O)CN(C)C(=O)[C@H](Cc2ccc(C(F)(F)F)cc2)N2CC/C=C\C[C@@H](C2=O)N(C)C(=O)CN(C)C1=O [PP1688],,,,,,A (a compound having 10 or more and less than 20 is denoted as A),A (a compound having 10 or more and less than 20 is denoted as A)
65.8 nM,CCCN1C(=O)CN(C)C(=O)CNC(=O)[C@H]([C@@H](C)CC)NC(=O)[C@H](CC(C)C)N(C)C(=O)C[C@@H](C(=O)N2CCOCC2)NC(=O)[C@H](C2CCCC2)N(C)C(=O)C2(CCCC2)NC(=O)[C@@H]2C[C@@H](OCC)CN2C(=O)[C@H](CCc2ccc(C(F)(F)F)c(Cl)c2)NC(=O)CN(C)C(=O)[C@@H]1Cc1ccc(C(F)(F)F)cc1 [PP0329] ([NMeL]IG[Sar][NPrPhe(4-CF3)][Sar][hPhe(3-Cl-4-CF3)][Hyp](Et)[Ac5c][NMeGly(cPent)]D-Morpholide; lactam N-11),B (a compound having 3 or more and less than 10 is denoted as B),C (A compound having a KD ratio of 0.1 or more and less than 3 is denoted as C),,,,,
10.2 nM,CCCN1C(=O)[C@@H]2CCN2C(=O)CN(CC)C(=O)[C@H]([C@@H](C)CC)NC(=O)[C@H](CC(C)C)N(C)C(=O)C[C@@H](C(=O)N2CCOCC2)N(C)C(=O)[C@H](C2CCCC2)N(C)C(=O)C2(CCCC2)NC(=O)[C@@H]2CCCN2C(=O)[C@H](CCc2ccc(C(F)(F)F)c(Cl)c2)NC(=O)CN(C)C(=O)[C@@H]1Cc1ccc(C(F)(F)F)cc1 [PP0259] ([NMeL]I[NEtG][Aze][NPrPhe(4-CF3)][Sar][hPhe(3-Cl-4-CF3)]P[Ac5c][NMeGly(cPent)][NMeD]-Morpholide; lactam N-11),C (A compound having a KD ratio of 0.1 or more and less than 3 is denoted as C),B (a compound having 3 or more and less than 10 is denoted as B),,,,,
,CCC[C@H]1C(=O)N[C@@H]([C@@H](C)CC)C(=O)N(C)CC(=O)N(C)[C@H]2C/C=C\CCN(C2=O)[C@@H](Cc2ccc(C(F)(F)F)cc2)C(=O)N(C)CC(=O)N[C@@H](CCc2cc(F)c(Cl)c(OC)c2)C(=O)N2C[C@H](OCC)C[C@H]2C(=O)NC2(CC(C)(C)C2)C(=O)N(C)[C@@H](C2CCCC2)C(=O)N(C)[C@H](C(=O)N(C)C)CC(=O)N1C [PP2864],A (a compound having 10 or more and less than 20 is denoted as A),A (a compound having 10 or more and less than 20 is denoted as A),124 nM,,,,
69 nM,CCCN1C(=O)CN(C)C(=O)CNC(=O)[C@H]([C@@H](C)CC)NC(=O)[C@H](CC(C)C)N(C)C(=O)C[C@@H](C(=O)N(C)C)NC(=O)[C@H](C2CCCC2)N(C)C(=O)C2(CCCC2)NC(=O)[C@@H]2CCCN2C(=O)[C@H](CCc2ccc(C(F)(F)F)c(Cl)c2)NC(=O)CN(C)C(=O)[C@@H]1Cc1ccc(C(F)(F)F)cc1 [PP0361] ([NMeL]IG[Sar][NPrPhe(4-CF3)][Sar][hPhe(3-Cl-4-CF3)]P[Ac5c][NMeGly(cPent)]D-NMe2; lactam N-11),B (a compound having 3 or more and less than 10 is denoted as B),C (A compound having a KD ratio of 0.1 or more and less than 3 is denoted as C),,,,,
4.9 nM,CCO[C@@H]1C[C@H]2C(=O)NC3(CC(C)(C)C3)C(=O)N(C)[C@@H](C3CCCC3)C(=O)N(C)[C@H](C(=O)N(C)CC)CC(=O)N(C)[C@H]3CCC/C=C/c4ccc(cc4)C[C@@H](C(=O)N(C)CC(=O)N[C@@H](CCc4cc(F)c(C(F)(F)F)c(F)c4)C(=O)N2C1)N1CC/C=C\C[C@@H](C1=O)N(C)C(=O)CN(C)C(=O)[C@H]([C@@H](C)CC)NC3=O [PP1835],,,,,,A (a compound having 10 or more and less than 20 is denoted as A),B (a compound having 3 or more and less than 10 is denoted as B)
4.3 nM,C#CCN1CC(=O)N(C)[C@H]2C/C=C\CCN(C2=O)[C@@H](Cc2ccc(C(F)(F)F)cc2)C(=O)N(C)CC(=O)N[C@@H](CCc2cc(F)c(C(F)(F)F)c(F)c2)C(=O)N2C[C@H](OCC)C[C@H]2C(=O)NC2(CC(C)(C)C2)C(=O)N(C)[C@@H](C2CCCC2)C(=O)N(C)[C@H](C(=O)N(C)C)CC(=O)N(C)[C@@H](CCC)C(=O)N[C@@H]([C@@H](C)CC)C1=O [PP2103],,,,A (a compound having 10 or more and less than 20 is denoted as A),A (a compound having 10 or more and less than 20 is denoted as A),,
111 nM,CCO[C@@H]1C[C@H]2C(=O)NC3(CCC3)C(=O)N(C)[C@@H](C3CCCC3)C(=O)N(C)[C@H](C(=O)N3CCOCC3)CC(=O)N(C)[C@@H](Cc3cccc(Cl)c3)C(=O)N[C@@H]([C@@H](C)CC)C(=O)N(C)CC(=O)N(C)[C@H]3CCCCCN(C3=O)[C@@H](Cc3ccc(C(F)(F)F)cc3)C(=O)N(C)CC(=O)N[C@@H](CCc3cc(F)c(C(F)(F)F)c(F)c3)C(=O)N2C1 [PP0857],B (a compound having 3 or more and less than 10 is denoted as B),B (a compound having 3 or more and less than 10 is denoted as B),,,,,
17 nM,CCO[C@@H]1C[C@H]2C(=O)NC3(CCC3)C(=O)N(C)[C@@H](C3CCCC3)C(=O)N(C)[C@H](C(=O)N(C)C)CC(=O)N(C)[C@@H](C(C)C)C(=O)N[C@@H]([C@@H](C)CC)C(=O)N(C)CC(=O)N(C)[C@H]3C/C=C\CCN(C3=O)[C@@H](Cc3ccc(C(F)(F)F)cc3)C(=O)N(C)CC(=O)N[C@@H](CCc3cc(F)c(C(F)(F)F)c(F)c3)C(=O)N2C1 [PP1109],A (a compound having 10 or more and less than 20 is denoted as A),B (a compound having 3 or more and less than 10 is denoted as B),,,,,

SMILES,IC50 [3],"NRAS /KRAS [1, 4]","HRAS /KRAS [2, 5]","IC50 [3, 6]","NRAS /KRAS [1, 7]","HRAS /KRAS [2, 8]","NRAS /KRAS [1, 9]","HRAS /KRAS [2, 10]"
CCC[C@H]1C(=O)N[C@@H]([C@@H](C)CC)C(=O)N(C)CC(=O)N(C)[C@H]2C/C=C\CCN(C2=O)[C@@H](Cc2ccc(C(F)(F)F)cc2)C(=O)N(C)CC(=O)N[C@@H](CCc2ccc(C(F)(F)F)c(C3CC3)c2)C(=O)N2C[C@H](OCC)C[C@H]2C(=O)NC2(CC(C)(C)C2)C(=O)N(C)[C@@H](C2CCCC2)C(=O)N(C)[C@H](C(=O)N(C)C)CC(=O)N1C [PP2852],8.7 nM,B (a compound having 3 or more and less than 10 is denoted as B),B (a compound having 3 or more and less than 10 is denoted as B),,,,,
